In article PMC3158291 (Journal of medicinal chemistry, 2011):
Converted amounts (≈) assume the structure as drawn.

Experiments:
[1] = system: Mycobacterium tuberculosis (Mtb), non-replicating; assay: Minimum Anaerobicidal Concentration; type: cell-based; conditions: non-replicating (anaerobic) Mtb; average ± SD of multiple measurements
[2] = system: Mycobacterium tuberculosis (Mtb), replicating; assay: Minimum Inhibitory Concentration; type: cell-based; conditions: for Mtb MIC99 μM (±SD): replicating (aerobic) Mtb, average ± SD of multiple measurements; for MIC99: Mycobacterium tuberculosis, read-out: Mtb MIC99 μM (±SD)
[3] = Stability in mouse liver microsomes; type: in vitro ADME; conditions: calculated from intrinsic clearance in mouse liver microsomes, method of ref 21
[4] = In vivo pharmacokinetic study, intravenous 5mg/kg; conditions: mice, intravenous injection at 5mg/kg

Row | Compound | Predicted hepatic extraction ratio [3] [%] | also measured
1 | 2−((S)−2−Nitro−6,7−dihydro−5H−imidazo[2,1−b][1,3]oxazin−6−ylamino)−2−(4−trifluoromethoxyphenyl)−ethanol [Compound 17i] |  | Mtb MAC μM (±SD) [1]: 23 ± 6 µM; Mtb MIC99 μM (±SD) [2]: 0.13 ± 0.04 µM
2 | CCC(=O)N(Cc1ccc(OC(F)(F)F)cc1)[C@@H]1COc2nc([N+](=O)[O-])cn2C1 [Compound 4b, (S)-N-(2-Nitro-6,7-dihydro-5H-imidazo[2,1-b][1,3]oxazin-6-yl)-N-(4-trifluoromethoxybenzyl)-propionamide] |  | Mtb MIC99 μM (±SD) [2]: Insoluble
3 | CN(Cc1ccc(OC(F)(F)F)cc1)[C@@H]1COc2nc([N+](=O)[O-])cn2C1 [Compound 5a, (S)-N-Methyl-2-nitro-N-4-trifluoromethoxybenzyl-6,7-dihydro-5H-imidazo[2,1-b][1,3]oxazin-6-amine] | 85 | 
4 | CCCN(Cc1ccc(OC(F)(F)F)cc1)[C@@H]1COc2nc([N+](=O)[O-])cn2C1 [Compound 5b, (S)-2-Nitro-N-propyl-N-(4-trifluoromethoxybenzyl)-6,7-dihydro-5H-imidazo[2,1-b][1,3]oxazin-6-amine] | 95 | 
5 | CC(C)N(Cc1ccc(OC(F)(F)F)cc1)[C@@H]1COc2nc([N+](=O)[O-])cn2C1 [Compound 5c, (S)-N-Isopropyl-2-nitro-N-(4-trifluoromethoxybenzyl)-6,7-dihydro-5H-imidazo[2,1-b][1,3]oxazin-6-amine] | 95 | 
6 | O=[N+]([O-])c1cn2c(n1)OC[C@@H](NCc1ccc(OC(F)(F)F)cc1Oc1ccccc1)C2 [Compound 32d, (S)-2-Nitro-N-(2-phenoxy-4-trifluoromethoxybenzyl)-6,7-dihydro-5H-imidazo[2,1-b][1,3]oxazin-6-amine] | 90 | 
7 | O=[N+]([O-])c1cn2c(n1)OC[C@@H](NCc1ccc(OC(F)(F)F)cc1OCC1CC1)C2 [Compound 32e, (S)-N-(2-Cyclopropylmethoxy-4-trifluoromethoxybenzyl)-2-nitro-6,7-dihydro-5H-imidazo[2,1-b][1,3]oxazin-6-amine] | 97 | 
8 | O=[N+]([O-])c1cn2c(n1)OC[C@@H](NCc1ccc(OC(F)(F)F)cc1OC1CC1)C2 [Compound 32f, (S)-N-(2-Cyclopropoxy-4-trifluoromethoxybenzyl)-2-nitro-6,7-dihydro-5H-imidazo[2,1-b][1,3]oxazin-6-amine] | 87 | 
9 | O=[N+]([O-])c1cn2c(n1)OC[C@@H](NCc1ccc(OC(F)(F)F)cc1O)C2 [Compound 32g, (S)-2-((2-Nitro-6,7-dihydro-5H-imidazo[2,1-b][1,3]oxazin-6-ylamino)methyl)-5-trifluoromethoxyphenol] | 81 | 
10 | O=[N+]([O-])c1cn2c(n1)OC[C@@H](NCc1ccc(OC(F)(F)F)cc1F)C2 [Compound 41a, (S)-N-(2-Fluoro-4-(trifluoromethoxy)benzyl)-2-nitro-6,7-dihydro-5H-imidazo[2,1-b][1,3]oxazin-6-amine] | 81 | MIC99 [2]: 0.13 ± 0.06 µM (≈ 0.0489 µg/mL)
11 | O=[N+]([O-])c1cn2c(n1)OC[C@@H](NCc1ccc(OC(F)(F)F)cc1Cl)C2 [Compound 41b, (S)-N-(2-Chloro-4-trifluoromethoxybenzyl)-2-nitro-6,7-dihydro-5H-imidazo[2,1-b][1,3]oxazin-6-amine] | 75 | MIC99 [2]: 0.12 ± 0.05 µM (≈ 0.0471 µg/mL)
12 | O=[N+]([O-])c1cn2c(n1)OC[C@@H](NCc1ccc(OC(F)(F)F)c(F)c1)C2 [Compound 56a, (S)-N-(3-Fluoro-4-trifluoromethoxybenzyl)-2-nitro-6,7-dihydro-5H-imidazo[2,1-b][1,3]oxazin-6-amine] | 72 | in vivo clearance [4]: low to moderate clearance; systemic exposure [4]: good systemic exposure
13 | O=[N+]([O-])c1cn2c(n1)OC[C@@H](NCc1ccc(OC(F)(F)F)c(Cl)c1)C2 [Compound 56b, (S)-N-(3-Chloro-4-trifluoromethoxybenzyl)-2-nitro-6,7-dihydro-5H-imidazo[2,1-b][1,3]oxazin-6-amine] |  | in vivo clearance [4]: low to moderate clearance; systemic exposure [4]: good systemic exposure
14 | O=[N+]([O-])c1cn2c(n1)OC[C@@H](NCc1ccc(OC(F)(F)F)c(Oc3ccccc3)c1)C2 [Compound 56e, (S)-2-Nitro-N-(3-phenoxy-4-(trifluoromethoxy)benzyl)-6,7-dihydro-5H-imidazo[2,1-b][1,3]oxazin-6-amine] | 87 | 
15 | O=[N+]([O-])c1cn2c(n1)OC[C@@H](NCc1ccc(OC(F)(F)F)c(O)c1)C2 [Compound 56i, (S)-5-((2-Nitro-6,7-dihydro-5H-imidazo[2,1-b][1,3]oxazin-6-ylamino)methyl)-2-(trifluoromethoxy)-phenol] |  | in vivo clearance [4]: cleared more rapidly; systemic exposure [4]: low systemic exposure
